Data: patent US20030018061A1, “Novel remedies with the use of beta 3 agonist” (priority 2000, published 2003)

Key:
[1] = system: Mice fasted overnight, glucose loaded; assay: Antidiabetic effect (II): plasma glucose after glucose loading in fasted mice, glibenclamide and β3 agonist; format: in vivo; settings: 1 hour after glucose load (1 g/kg s.c.), oral GLI 10 mg/kg, compound a 10 mg/kg, d 0.3 mg/kg, e, g 3 mg/kg, i 1 mg/kg, vs glucose loading only
Method: Mice fasted overnight were orally administered with glibenclamide (GLI: 10 mg/kg), a β3 agonist (compound a: 10 mg/kg; compound c: 0.3 mg/kg; compound d: 0.3 mg/kg; compound e: 3 mg/kg; compound g: 3 mg/kg; compound h: 1 mg/kg; compound i: 1 mg/kg), or GLI and a β3 agonist (compound a, compound c, compound d, compound e, compound g, compound h, and compound i) in combination (each dosage was the same as the aforementioned), and immediately glucose (1 g/kg, subcutaneous injection) was loaded. Blood was collected after 1 hour, and the amount of glucose contained in blood plasma was measured.
In this combined use, hypoglycemia, which is a side effect of glibenclamide, was not observed.

[2] = system: Mice induced with obesity by feeding with a high fat diet; assay: Antiobestic effect (I): body weight of high fat diet obese mice, sibutramine and β3 agonist; format: in vivo; settings: oral, 2 weeks; SIB 1 mg/kg; compound c, d 0.3 mg/kg; e, g 3 mg/kg; h, i 1 mg/kg; alone or combined at same doses
Method: (§1) Mice induced with obesity by feeding with a high fat diet for 2 months were orally administered with sibutramine (SIB: 1 mg/kg), a β3 agonist (compound c: 0.3 mg/kg; compound d: 0.3 mg/kg; compound e: 3 mg/kg; compound g: 3 mg/kg; compound h: 1 mg/kg; compound i: 1 mg/kg), or SIB and a β3 agonist (compound c, compound d, compound e, compound g, compound h, and compound i) in combination (each dosage was the same as the aforementioned) for 2 weeks and bred, and body weight was measured.

[3] = system: human urinary bladder compression muscle; assay: Relaxation of carbachol-contracted human urinary bladder compression muscle; format: cell-based; settings: for relaxation of bladder compression muscle, combination with propiverine: 10^−6 M propiverine plus compound (a, b, f, g 10^−9 M; c, d 10^−10 M; e, h, i 10^−8 M); for relaxation of bladder compression muscle, combination with propiverine / relaxation of bladder compression muscle, combination with oxybutynin / relaxation of bladder compression muscle, combination with tolterodine: in comparison with each compound alone; for relaxation of bladder compression muscle, combination with oxybutynin: 10^−9 M oxybutynin plus compound (a, b, f, g 10^−9 M; c 10^−10 M; e, h, i 10^−8 M); for relaxation of bladder compression muscle, combination with tolterodine: 10^−9 M tolterodine plus compound (a, b, f, g 10^−9 M; d 10^−10 M; e, h, i 10^−8 M); for concentration at which the bladder compression muscle was significantly relaxed / concentration at which the muscle was not relaxed significantly: contraction provoked by carbachol (0.5×10^−6 M), each compound alone
Mice [4] = assay: Antidiabetic effect: plasma glucose in mice, insulin and β3 agonist; format: in vivo; settings: 30 min after dosing; INS 0.2 U/kg intraperitoneal; oral compound a 10 mg/kg; c, d 0.3 mg/kg; e, g 3 mg/kg; h, i 1 mg/kg; alone or combined
Method: Mice were administered with insulin (INS: 0.2 U/kg, intraperitoneal injection), a β3 agonist (oral administration of compound a: 10 mg/kg; compound c: 0.3 mg/kg; compound d: 0.3 mg/kg; compound e: 3 mg/kg; compound g: 3 mg/kg; compound h: 1 mg/kg; compound i: 1 mg/kg, respectively), or INS and a β3 agonist (compound a, compound c, compound d, compound e, compound g, compound h, and compound i) in combination (each dosage and administration route was the same as the aforementioned), blood was collected after 30 min, and the amount of glucose contained in blood plasma was measured.

[5] = system: Mice induced with obesity by feeding with a high fat diet; assay: Antiobestic effect (II): body weight of high fat diet obese mice, orlistat and β3 agonist; format: in vivo; settings: oral, 2 weeks; orlistat 1 mg/kg; compound c, d 0.3 mg/kg; e, g 3 mg/kg; h, i 1 mg/kg; alone or combined at same doses
Method: as §1, with “orlistat (1” for “sibutramine (SIB: 1”, “orlistat” for “SIB”

[6] = system: Genetically diabetic mice; assay: Antidiabetic effect (III): genetically diabetic mice, rosiglitazone and β3 agonist; format: in vivo; settings: oral, 2 weeks; ROS 1 mg/kg; compound c, d 0.3 mg/kg; e, g 3 mg/kg; h, i 1 mg/kg; alone or combined
Method: Genetically diabetic mice were orally administered with rosiglitazone (ROS: 1 mg/kg), a β3 agonist (compound c: 0.3 mg/kg; compound d: 0.3 mg/kg; compound e: 3 mg/kg; compound g: 3 mg/kg; compound h: 1 mg/kg; compound i: 1 mg/kg), or ROS and a β3 agonist (compound c, compound d, compound e, compound g, compound h, and compound i) in combination (each dosage was the same as the aforementioned) for 2 weeks. Blood was collected thereafter, and the amount of glucose contained in blood plasma was measured.

[7] = system: Genetically diabetic mice; assay: Antidiabetic effect (IV): genetically diabetic mice, acarbose and β3 agonist; format: in vivo; settings: oral, 2 weeks; ACA 1 mg/kg; compound c, d 0.3 mg/kg; e, g 3 mg/kg; h, i 1 mg/kg; alone or combined
Method: Genetically diabetic mice were orally administered with acarbose (ACA: 1 mg/kg), a β3 agonist (compound c: 0.3 mg/kg; compound d: 0.3 mg/kg; compound e: 3 mg/kg; compound g: 3 mg/kg; compound h: 1 mg/kg; compound i: 1 mg/kg), or ACA and a β3 agonist (compound c, compound d, compound e, compound g, compound h, and compound i) in combination (each dosage was the same as the aforementioned) for 2 weeks. Blood was collected thereafter, and the amount of glucose contained in blood plasma was measured.

Mice [8] = assay: Antilipemic effect (II): plasma triglyceride in mice, bezafibrate and β3 agonist; format: in vivo; settings: oral, 2 weeks; administered solely: BEZ 3 mg/kg; compound c, d 0.3 mg/kg; e, g 3 mg/kg; h, i 1 mg/kg
Method: Mice were orally administered with bezafibrate (BEZ: 3 mg/kg), a β3 agonist (compound c: 0.3 mg/kg; compound d: 0.3 mg/kg; compound e: 3 mg/kg; compound g: 3 mg/kg; compound h: 1 mg/kg; compound i: 1 mg/kg), or BEZ and a β3 agonist (compound c, compound d, compound e, compound g, compound h, and compound i) in combination (each dosage was the same as the aforementioned) for 2 weeks. Blood was collected thereafter, and the amount of triglyceride contained in blood plasma was measured.

COc1ccc(Cl)cc1C(=O)NCCc1ccc(S(=O)(=O)NC(=O)NC2CCCCC2)cc1 [GLI, glibenclamide, reference compound]
blood glucose level (glucose in blood plasma) [1]: almost no difference in the blood glucose level

CC(C)CC(N(C)C)C1(c2ccc(Cl)cc2)CCC1 (stereo not drawn) [SIB, sibutramine, reference compound]
body weight [2]: almost no change in body weight

CS(=O)(=O)Nc1cccc([C@@H](O)CNCCOc2ccc3c(c2)[nH]c2cc(O)ccc23)c1 [compound a, (R)-N-[3-[2-[2-(7-hydroxy-9H-carbazole-2-iloxy)ethylamino]-1-hydroxyethyl]phenyl]methanesulfonamide]
relaxation of bladder compression muscle, combination with propiverine [3]: relaxed significantly | relaxation of bladder compression muscle, combination with oxybutynin [3]: relaxed significantly | relaxation of bladder compression muscle, combination with tolterodine [3]: relaxed significantly | concentration at which the bladder compression muscle was significantly relaxed [3]: 10^−7 M | concentration at which the muscle was not relaxed significantly [3]: 10^−9 M | blood glucose level (glucose in blood plasma) (Mice [4]): no change in blood glucose level | blood glucose level (glucose in blood plasma) [1]: almost no difference in the blood glucose level

CS(=O)(=O)Nc1cc([C@@H](O)CNCCOc2ccc3c4c([nH]c3c2)CCCC4)ccc1O [compound b, (R)-N-[5-[2-[2-(5,6,7,8-tetrahydro-9H-carbazole-2-iloxy)ethylamino]-1-hydroxyethyl]-2-hydroxyphenyl]methanesulfonamide]
relaxation of bladder compression muscle, combination with propiverine [3]: relaxed significantly | relaxation of bladder compression muscle, combination with oxybutynin [3]: relaxed significantly | relaxation of bladder compression muscle, combination with tolterodine [3]: relaxed significantly | concentration at which the bladder compression muscle was significantly relaxed [3]: 10^−7 M | concentration at which the muscle was not relaxed significantly [3]: 10^−9 M

CS(=O)(=O)Nc1cc([C@@H](O)CNCCOc2ccc3c(c2)sc2ccccc23)ccc1O [compound c, (R)-N-[5-[2-[2-(dibenzothiophene-3-iloxy)ethylamino]-1-hydroxyethyl]-2-hydroxyphenyl]methanesulfonamide]
relaxation of bladder compression muscle, combination with propiverine [3]: relaxed significantly | relaxation of bladder compression muscle, combination with oxybutynin [3]: relaxed significantly | relaxation of bladder compression muscle, combination with tolterodine [3]: relaxed significantly | concentration at which the bladder compression muscle was significantly relaxed [3]: 10^−8 M | concentration at which the muscle was not relaxed significantly [3]: 10^−10 M | body weight [2]: almost no change in body weight | body weight [5]: almost no change in body weight | blood glucose level (glucose in blood plasma) (Mice [4]): no change in blood glucose level | blood glucose level (glucose in blood plasma) [1]: almost no difference in the blood glucose level | blood glucose level (glucose in blood plasma) [6]: no difference in the blood glucose level | blood glucose level (glucose in blood plasma) [7]: no difference | plasma triglyceride level (Mice [8]): no difference

CS(=O)(=O)Nc1cc([C@@H](O)CNCCOc2ccc3c(c2)[nH]c2ccccc23)ccc1O [compound d, (R)-N-[5-[2-[2-(9H-carbazole-2-iloxy)ethylamino]-1-hydroxyethyl]-2-hydroxyphenyl]methanesulfonamide]
relaxation of bladder compression muscle, combination with propiverine [3]: relaxed significantly | relaxation of bladder compression muscle, combination with oxybutynin [3]: relaxed significantly | relaxation of bladder compression muscle, combination with tolterodine [3]: relaxed significantly | concentration at which the bladder compression muscle was significantly relaxed [3]: 10^−8 M | concentration at which the muscle was not relaxed significantly [3]: 10^−10 M | body weight [2]: almost no change in body weight | body weight [5]: almost no change in body weight | blood glucose level (glucose in blood plasma) (Mice [4]): no change in blood glucose level | blood glucose level (glucose in blood plasma) [1]: almost no difference in the blood glucose level | blood glucose level (glucose in blood plasma) [6]: no difference in the blood glucose level | blood glucose level (glucose in blood plasma) [7]: no difference | plasma triglyceride level (Mice [8]): no difference

CS(=O)(=O)Nc1cccc([C@@H](O)CNCCOc2ccc3c(c2)[nH]c2ccccc23)c1 [compound e, (R)-N-[3-[2-[2-(9H-carbazole-2-iloxy)ethylamino]-1-hydroxyethyl]phenyl]methanesulfonamide]
relaxation of bladder compression muscle, combination with propiverine [3]: relaxed significantly | relaxation of bladder compression muscle, combination with oxybutynin [3]: relaxed significantly | relaxation of bladder compression muscle, combination with tolterodine [3]: relaxed significantly | concentration at which the bladder compression muscle was significantly relaxed [3]: 10^−6 M | concentration at which the muscle was not relaxed significantly [3]: 10^−8 M | body weight [2]: almost no change in body weight | body weight [5]: almost no change in body weight | blood glucose level (glucose in blood plasma) (Mice [4]): no change in blood glucose level | blood glucose level (glucose in blood plasma) [1]: almost no difference in the blood glucose level | blood glucose level (glucose in blood plasma) [6]: no difference in the blood glucose level | blood glucose level (glucose in blood plasma) [7]: no difference | plasma triglyceride level (Mice [8]): no difference

CN(C)S(=O)(=O)Nc1cc([C@@H](O)CNCCOc2ccc3c(c2)[nH]c2ccccc23)ccc1O [compound f, (R)-N′-[5-[2-[2-(9H-carbazole-2-iloxy)ethylamino]-1-hydroxyethyl]-2-hydroxyphenyl]-N,N-dimethyl sulfonyl amide]
relaxation of bladder compression muscle, combination with propiverine [3]: relaxed significantly | relaxation of bladder compression muscle, combination with oxybutynin [3]: relaxed significantly | relaxation of bladder compression muscle, combination with tolterodine [3]: relaxed significantly | concentration at which the bladder compression muscle was significantly relaxed [3]: 10^−7 M | concentration at which the muscle was not relaxed significantly [3]: 10^−9 M

CCCCCCCCCCC[C@@H](C[C@@H]1OC(=O)[C@H]1CCCCCC)OC(=O)[C@H](CC(C)C)NC=O [orlistat, reference compound]
body weight [5]: almost no change in body weight

insulin [reference compound]
blood glucose level (glucose in blood plasma) (Mice [4]): no change in blood glucose level
